Reference: publication PMC4532830, “Crystal structure, biochemical and cellular activities demonstrate separate functions of MTH1 and MTH2” (Nature Communications, 2015)
Read-outs that look alike come from different tables or passages of the source. One block for each molecule: values may come before it.

Experiments:
MTH1 = target: T1, MTH1 (Homo sapiens, UniProt P36639); conditions: pH 7.5 but methods buffer pH 8.0, 10 mM Mg acetate, unit assumed
T1 construct: gene NUDT1

NUDT18 = target: T2, NUDT18 (Homo sapiens, UniProt Q6ZVK8); experiment: phosphate release, malachite green assay; assay type: biochemical; conditions: 50 uM nucleotide, 25 nM enzyme, 22 C, 30 min, pH 8.0, 10 mM Mg acetate; which of 8-oxo-dGTP or 8-oxo-dGDP belongs to NUDT18 is not spelt out
T2 construct: recombinant, cDNA codon-optimized for E. coli in pET28a(+); His-tag removed by TEV or thrombin
T2 sequence (Q6ZVK8 1-323): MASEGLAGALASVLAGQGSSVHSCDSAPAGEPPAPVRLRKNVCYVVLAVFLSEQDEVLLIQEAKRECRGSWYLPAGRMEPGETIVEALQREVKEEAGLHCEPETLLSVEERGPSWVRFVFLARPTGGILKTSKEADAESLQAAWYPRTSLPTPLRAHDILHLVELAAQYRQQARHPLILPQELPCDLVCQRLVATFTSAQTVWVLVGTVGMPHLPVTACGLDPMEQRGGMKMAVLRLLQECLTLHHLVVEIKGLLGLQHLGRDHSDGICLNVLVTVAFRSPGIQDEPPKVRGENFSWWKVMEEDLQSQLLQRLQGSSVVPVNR

[1] = target: the molecule itself; experiment: SEC; 10/300 GL S75 column, 20 mM HEPES pH 7.5, 300 mM NaCl, 10% glycerol, 0.5 mM TCEP; 0.24 mg NUDT15 in 500 ul

Km (MTH1; 0-400 uM dGTP, 2 nM enzyme): 110 ± 35 µM
Molecule: Nc1nc2c(ncn2[C@H]2C[C@H](O)[C@@H](COP(=O)(O)OP(=O)(O)OP(=O)(O)O)O2)c(=O)[nH]1 [dGTP, 2′-Deoxyguanosine-5′-triphosphate]

Km (MTH1; 0-100 uM 8-oxo-dGTP, 0.25 nM enzyme): 10.2 ± 0.8 µM
Molecule: Nc1nc2c([nH]c(=O)n2[C@H]2C[C@H](O)[C@@H](COP(=O)(O)OP(=O)(O)OP(=O)(O)O)O2)c(=O)[nH]1 [8-oxo-dGTP]

The next lines start with the molecule.

Molecule: Nc1nc2c([nH]c(=O)n2[C@H]2C[C@H](O)[C@@H](COP(=O)(O)OP(=O)(O)O)O2)c(=O)[nH]1 [8-oxo-dGDP]
phosphate release, malachite green assay (NUDT18): NUDT15 and NUDT18 have the ability to hydrolyse 8-oxo-dGTP or 8-oxo-dGDP in biochemical assays

B1: NUDT15 (enzyme, human, UniProt Q9NV35 1-164, looked up)
chain: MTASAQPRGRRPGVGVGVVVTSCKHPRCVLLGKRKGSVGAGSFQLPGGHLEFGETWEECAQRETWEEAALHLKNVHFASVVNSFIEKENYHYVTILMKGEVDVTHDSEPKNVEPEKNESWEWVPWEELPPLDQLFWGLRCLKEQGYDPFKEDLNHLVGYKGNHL
notes: NUDT15 (MTH2), human, full length; expression construct pNIC28hNUDT15 from the Structural Genome Consortium; The His-tag was removed by TEV protease or thrombin; Crystals grew in the presence of alpha-chymotrypsin, so the chain in the crystal may be shorter than full length; also called MTH2; MutT homologue 2; source: E. coli BL21 (DE3) T1R pRARE2, purified (HisTrap HP, gel filtration Superdex 75)
stoichiometry N [1]: 2
